How the values were obtained:
[1] = target: Trypsin (Sus scrofa) (UniProt P00761); assay: (§1) Inhibition of pig pancreas trypsin type IX-S using Boc-Gln-Ala-Arg-MCA substrate by 7-amino-4-methylcoumarin release based spectrofluorometry; conditions: TDE = time-dependent effect
[2] = target: T1, Trypsin (Sus scrofa, UniProt P00761); assay: as §1
[3] = target: T1, Trypsin; assay: Inhibition of pig pancreas trypsin type IX-S

T1 sequence (P00761 whole entry): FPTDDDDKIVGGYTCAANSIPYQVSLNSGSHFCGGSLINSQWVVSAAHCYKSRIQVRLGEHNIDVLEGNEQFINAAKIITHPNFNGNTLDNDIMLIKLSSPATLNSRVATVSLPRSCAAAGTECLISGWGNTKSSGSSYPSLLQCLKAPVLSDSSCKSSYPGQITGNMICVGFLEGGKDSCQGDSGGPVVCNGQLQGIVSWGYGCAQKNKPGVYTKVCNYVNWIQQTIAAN
Trypsin (Sus scrofa), sequence (P00761 whole entry): as above

Row | inhibition [1] | IC50 [2] [µM] | IC50 [3] [µM] | SMILES
1 | tde | 0.35 | – | CC[C@H](C)[C@H](NC(=O)C(O)CCc1ccc(O)cc1)C(=O)N[C@H](C=O)CCCNC(=N)N (some centres not stated)
2 | tde | 55 | – | CC[C@H](C)[C@H](NC(=O)C(O)CCc1ccc(O)cc1)C(=O)N[C@H](CO)CCCNC(=N)N (some centres not stated)
3 | – | 0.5 | > 0.2 | CC(=O)N[C@@H](CC(C)C)C(=O)N[C@@H](CC(C)C)C(=O)N[C@H](C=O)CCCNC(=N)N [LEUPEPTIN]
4 | – | < 0.1 | – | C[C@H]1C[C@@H](C(=O)NC(C=O)CCCNC(=N)N)N(C(=O)[C@@H](CCc2ccc(O)cc2)NC(=O)[C@H](O)Cc2ccc(O)cc2)C1 (some centres not stated) [SPUMIGIN E]
